Measured values from patent US10131652B2, “Pyrimidinyloxy benzene derivatives as herbicides” (E. I. DU PONT DE NEMOURS AND COMPANY, priority 2014, dated 2018).

Experiments:
Format in all cases: in vivo
[1] = test system: blackgrass (Alopecurus myosuroides); test: Test B postemergence plant response; details: 0 to 100 scale, 0 no effect, 100 complete control
Procedure, shortened: (§1)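 Visual injury ratings, 0 = no effect to 100 = complete control, versus untreated controls approximately 10 days after postemergence spraying in greenhouse. Plants were at one- to two-leaf stage, 2 to 10 cm tall, in loam soil/sand blend; a dash denotes no result.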

[2] = test system: galium (catchweed bedstraw, Galium aparine); test: Test B postemergence plant response; details: 0 to 100 scale, 0 no effect, 100 complete control
Procedure, shortened: as §1

[3] = test system: ducksalad (Heteranthera limosa); test: Test C flooded paddy test plant response; details: Flood, 250 g ai/ha; scale of 0 to 100 where 0 is no effect and 100 is complete control; 13 to 15 days
Description: (§2) Plant species in the flooded paddy test selected from rice (Oryza sativa), small-flower umbrella sedge (Cyperus difformis), ducksalad (Heteranthera limosa), and bamyardgrass (Echinochloa crus-galli) were grown to the 2-leaf stage for testing. At time of treatment, test pots were flooded to 3 cm above the soil surface, treated by application of test compounds directly to the paddy water, and then maintained at that water depth for the duration of the test. Treated plants and controls were maintained in a greenhouse for 13 to 15 days, after which time all species were compared to controls and visually evaluated. Plant response ratings, summarized in Table C, are based on a scale of 0 to 100 where 0 is no effect and 100 is complete control. A dash (-) response means no test result.

rice (Oryza sativa) = test: Test C flooded paddy test plant response; details: Flood, 250 g ai/ha; scale of 0 to 100 where 0 is no effect and 100 is complete control; 13 to 15 days
Description: as §2

[4] = test system: barnyardgrass (Echinochloa crus-galli); test: Test C flooded paddy test plant response; details: Flood, 250 g ai/ha; scale of 0 to 100 where 0 is no effect and 100 is complete control; 13 to 15 days
Description: as §2

[5] = test system: small-flower umbrella sedge (Cyperus difformis); test: Test C flooded paddy test plant response; details: Flood, 250 g ai/ha; scale of 0 to 100 where 0 is no effect and 100 is complete control; 13 to 15 days
Description: as §2

[6] = test system: giant foxtail (Setaria faberii); test: Test B pre-/postemergence plant response; details: for Foxtail, Giant plant response rating: 0 to 100 scale (0 no effect, 100 complete control)
Text: (§3) Seeds of plant species selected from bamyardgrass (Echinochloa crus-galli), kochia (Kochia scoparia), ragweed (common ragweed, Ambrosia elatior), Italian ryegrass (Lolium multiflorum), large (Lg) crabgrass (Digitaria sanguinalis), giant foxtail (Setaria faberii), momingglory (Ipomoea spp.), pigweed (Amaranthus retroflexus), velvetleaf (Abutilon theophrasti), wheat (Triticum aestivum), and corn (Zea mays) were planted into a blend of loam soil and sand and treated preemergence with a directed soil spray using test chemicals formulated in a non-phytotoxic solvent mixture which included a surfactant. At the same time, plants selected from these crop and weed species and also blackgrass (Alopecurus myosuroides), and galium (catchweed bedstraw, Galium aparine) were planted in pots containing the same blend of loam soil and sand and treated with postemergence applications of test chemicals formulated in the same manner. Plants ranged in height from 2 to 10 cm and were in the one- to two-leaf stage for the postemergence treatment. Treated plants and untreated controls were maintained in a greenhouse for approximately 10 days, after which time all treated plants were compared to untreated controls and visually evaluated for injury. Plant response ratings, summarized in Table B, are based on a 0 to 100 scale where 0 is no effect and 100 is complete control. A dash (-) response means no test result.

[7] = test system: pigweed (Amaranthus retroflexus); test: Test B pre-/postemergence plant response; details: for Pigweed plant response rating: 0 to 100 scale (0 no effect, 100 complete control)
Text: as §3

[8] = test system: wheat (Triticum aestivum); test: Test B pre-/postemergence plant response; details: 0 to 100 scale, 0 no effect, 100 complete control
Text: as §3

[9] = test system: Italian ryegrass (Lolium multiflorum); test: Test B pre-/postemergence plant response; details: for Ryegrass, Italian plant response rating: 0 to 100 scale (0 no effect, 100 complete control)
Text: as §3

kochia (Kochia scoparia) = test: Test B pre-/postemergence plant response; details: for Kochia plant response rating: 0 to 100 scale (0 no effect, 100 complete control)
Text: as §3

corn (Zea mays) = test: Test B pre-/postemergence plant response; details: 0 to 100 scale, 0 no effect, 100 complete control
Text: as §3

[10] = test system: barnyardgrass (Echinochloa crus-galli); test: Test B pre-/postemergence plant response; details: for Barnyardgrass plant response rating: 0 to 100 scale (0 no effect, 100 complete control)
Text: as §3

[11] = test system: ragweed (common ragweed, Ambrosia elatior); test: Test B pre-/postemergence plant response; details: for Ragweed plant response rating: 0 to 100 scale (0 no effect, 100 complete control)
Text: as §3

[12] = 31 g ai/ha, Postemergence, 0 to 100 scale, 0 no effect, 100 complete control
[13] = 125 g ai/ha, postemergence, 0 to 100 scale, 0 no effect, 100 complete control
[14] = Preemergence, 125 g ai/ha, 0 to 100 scale where 0 is no effect and 100 is complete control

SMILES | Plant response rating, Blackgrass ([1]; 31 g ai/ha, Postemergence) | Plant response rating, Blackgrass ([1]; 125 g ai/ha, postemergence) | Plant response rating, Galium ([2]; 31 g ai/ha, Postemergence) | Plant response rating, Galium ([2]; 125 g ai/ha, postemergence) | Ducksalad plant response rating [3] | Rice plant response rating (rice (Oryza sativa)) | Barnyardgrass plant response rating [4] | Sedge, Umbrella plant response rating [5] | Plant response rating, Foxtail, Giant [6, 12] | Plant response rating, Foxtail, Giant [6, 13] | Foxtail, Giant plant response rating ([6]; Preemergence, 31 g ai/ha) | Plant response rating, Foxtail, Giant [6, 14] | Plant response rating, Pigweed [7, 12] | Plant response rating, Pigweed [7, 13] | Pigweed plant response rating ([7]; Preemergence, 31 g ai/ha) | Plant response rating, Pigweed [7, 14] | Plant response rating, Wheat ([8]; 31 g ai/ha, Postemergence) | Plant response rating, Wheat ([8]; 125 g ai/ha, postemergence) | Plant response rating, Ryegrass, Italian [9, 12] | Plant response rating, Ryegrass, Italian [9, 13] | other results
CC(C)n1nc(C(F)(F)F)cc1-c1c(C#N)cccc1Oc1ncc(Cl)cn1 [Compound 90] | 0 | 0 | 0 | 30 | 0 | 0 | 0 | 0 | 0 | 0 | 0 | 0 | 0 | 10 | 0 | 20 | 0 | 0 | 0 | 0 | Ryegrass, Italian plant response rating ([9]; Preemergence, 31 g ai/ha): 0; Plant response rating, Ryegrass, Italian [9, 14]: 0; Plant response rating, Kochia (kochia (Kochia scoparia); [12]): 0; Plant response rating, Kochia (kochia (Kochia scoparia); [13]): 10; Kochia plant response rating (kochia (Kochia scoparia); Preemergence, 31 g ai/ha): 0; Plant response rating, Kochia (kochia (Kochia scoparia); [14]): 0; Plant response rating, Corn (corn (Zea mays); 31 g ai/ha, Postemergence): 0; Plant response rating, Corn (corn (Zea mays); 125 g ai/ha, postemergence): 0; Plant response rating, Barnyardgrass [10, 12]: 0; Plant response rating, Barnyardgrass [10, 13]: 0; Barnyardgrass plant response rating ([10]; Preemergence, 31 g ai/ha): 0; Plant response rating, Barnyardgrass [10, 14]: 0; Plant response rating, Ragweed [11, 12]: 0; Plant response rating, Ragweed [11, 13]: 0; Ragweed plant response rating ([11]; Preemergence, 31 g ai/ha): 0; Plant response rating, Ragweed [11, 14]: 0
Clc1cnc(Oc2ccccc2-c2cc(C(Cl)Cl)on2)nc1 [Compound 97] | 0 | 0 | 10 | 50 | 0 | 0 | 0 | 50 | 0 | 30 | 10 | 30 | 60 | 90 | 20 | 50 | 0 | 0 | 0 | 0 | Ryegrass, Italian plant response rating ([9]; Preemergence, 31 g ai/ha): 0; Plant response rating, Ryegrass, Italian [9, 14]: 0; Plant response rating, Kochia (kochia (Kochia scoparia); [12]): 60; Plant response rating, Kochia (kochia (Kochia scoparia); [13]): 90; Kochia plant response rating (kochia (Kochia scoparia); Preemergence, 31 g ai/ha): 0; Plant response rating, Kochia (kochia (Kochia scoparia); [14]): 30; Plant response rating, Corn (corn (Zea mays); 31 g ai/ha, Postemergence): 0; Plant response rating, Corn (corn (Zea mays); 125 g ai/ha, postemergence): 20; Plant response rating, Barnyardgrass [10, 12]: 0; Plant response rating, Barnyardgrass [10, 13]: 20; Barnyardgrass plant response rating ([10]; Preemergence, 31 g ai/ha): 0; Plant response rating, Barnyardgrass [10, 14]: 0; Plant response rating, Ragweed [11, 12]: 20; Plant response rating, Ragweed [11, 13]: 50; Ragweed plant response rating ([11]; Preemergence, 31 g ai/ha): 0; Plant response rating, Ragweed [11, 14]: 0
COc1cccc(Oc2ncc(Cl)cn2)c1-c1cc(C(F)F)no1 [Compound 103] | 30 | 90 | 90 | 100 | 40 | 30 | 60 | 80 | 40 | 70 | 50 | 90 | 30 | 80 | 100 | 100 | 0 | 0 | 0 | 10 | Ryegrass, Italian plant response rating ([9]; Preemergence, 31 g ai/ha): 0; Plant response rating, Ryegrass, Italian [9, 14]: 0; Plant response rating, Kochia (kochia (Kochia scoparia); [12]): 0; Plant response rating, Kochia (kochia (Kochia scoparia); [13]): 30; Kochia plant response rating (kochia (Kochia scoparia); Preemergence, 31 g ai/ha): 0; Plant response rating, Kochia (kochia (Kochia scoparia); [14]): 10; Plant response rating, Corn (corn (Zea mays); 31 g ai/ha, Postemergence): 0; Plant response rating, Corn (corn (Zea mays); 125 g ai/ha, postemergence): 30; Plant response rating, Barnyardgrass [10, 12]: 0; Plant response rating, Barnyardgrass [10, 13]: 40; Barnyardgrass plant response rating ([10]; Preemergence, 31 g ai/ha): 0; Plant response rating, Barnyardgrass [10, 14]: 50; Plant response rating, Ragweed [11, 12]: 20; Plant response rating, Ragweed [11, 13]: 60; Ragweed plant response rating ([11]; Preemergence, 31 g ai/ha): 0; Plant response rating, Ragweed [11, 14]: 10
COc1cccc(Oc2ncc(Cl)cn2)c1-c1cc(C(F)(F)F)on1 [Compound 105] | 70 | 100 | 70 | 100 | 40 | 35 | 45 | 70 | 40 | 80 | 70 | 100 | 90 | 100 | 100 | 100 | 0 | 10 | 0 | 10 | Ryegrass, Italian plant response rating ([9]; Preemergence, 31 g ai/ha): 0; Plant response rating, Ryegrass, Italian [9, 14]: 20; Plant response rating, Kochia (kochia (Kochia scoparia); [12]): 30; Plant response rating, Kochia (kochia (Kochia scoparia); [13]): 70; Kochia plant response rating (kochia (Kochia scoparia); Preemergence, 31 g ai/ha): 0; Plant response rating, Kochia (kochia (Kochia scoparia); [14]): 10; Plant response rating, Corn (corn (Zea mays); 31 g ai/ha, Postemergence): 10; Plant response rating, Corn (corn (Zea mays); 125 g ai/ha, postemergence): 20; Plant response rating, Barnyardgrass [10, 12]: 10; Plant response rating, Barnyardgrass [10, 13]: 70; Barnyardgrass plant response rating ([10]; Preemergence, 31 g ai/ha): 20; Plant response rating, Barnyardgrass [10, 14]: 90; Plant response rating, Ragweed [11, 12]: 10; Plant response rating, Ragweed [11, 13]: 30; Ragweed plant response rating ([11]; Preemergence, 31 g ai/ha): 0; Plant response rating, Ragweed [11, 14]: 0
Cc1nnc(-c2ccccc2Oc2ncc(Cl)cn2)o1 [Compound 106] | 0 | 0 | 0 | 0 | 0 | 0 | 0 | 0 | 0 | 0 | 0 | 0 | 0 | 0 | 0 | 0 | 0 | 0 | 0 | 0 | Ryegrass, Italian plant response rating ([9]; Preemergence, 31 g ai/ha): 0; Plant response rating, Ryegrass, Italian [9, 14]: 0; Plant response rating, Kochia (kochia (Kochia scoparia); [12]): 0; Plant response rating, Kochia (kochia (Kochia scoparia); [13]): 0; Kochia plant response rating (kochia (Kochia scoparia); Preemergence, 31 g ai/ha): 0; Plant response rating, Kochia (kochia (Kochia scoparia); [14]): 0; Plant response rating, Corn (corn (Zea mays); 31 g ai/ha, Postemergence): 0; Plant response rating, Corn (corn (Zea mays); 125 g ai/ha, postemergence): 0; Plant response rating, Barnyardgrass [10, 12]: 0; Plant response rating, Barnyardgrass [10, 13]: 0; Barnyardgrass plant response rating ([10]; Preemergence, 31 g ai/ha): 0; Plant response rating, Barnyardgrass [10, 14]: 0; Plant response rating, Ragweed [11, 12]: 0; Plant response rating, Ragweed [11, 13]: 0; Ragweed plant response rating ([11]; Preemergence, 31 g ai/ha): 0; Plant response rating, Ragweed [11, 14]: 0
